# According to patent publication US8106037B2, “Identification and treatment of estrogen responsive prostate tumors” (The Brigham and Women's Hospital, Inc., priority 2007, dated 2012):
# Entries after “also recorded” stand apart in the source; their conditions may differ. Like-named read-outs stand apart in the source and are kept apart here.
# Experiments:
# [1] = system: NCI-H660 prostate cancer cell line; assay: Cell growth assay (Cell Titer-Glo luminescent assay); format: cell-based; conditions: final concentration 10^−8M, relative cell number 2-12 d
# Method: The prostate cancer cell lines NCI-[…] and VCaP were maintained according to ATCC instructions. […] NCI-[…] cells were seeded in a 96-well plate ( 5×10^3 cells/well) and stimulated with hormone or vehicle alone. Relative cell number was determined before (time 0 used for normalization) and after stimulation (2, 3, 6, 8, 10, 12 d) using the Cell Titer-Glo luminescent assay (Promega).
# [2] = system: TMPRSS2-ERG fusion transcript; assay: TMPRSS2-ERG fusion transcript expression (QPCR) in NCI-H660 cells
# Method: (§1) Fusion status was determined by ERG break-apart FISH assay (Pemer, et al., Cancer Res. 66:8337-8341 (2006)) and QPCR (for cases not assessable by FISH). An aliquot of the RNA used for DASL was used for QPCR. cDNA was synthesized as above. TMPRSS2-ERG fusion product was determined using SYBR green assay (Qiagen) with TMPRSS2-ERG_f and TMPRSS2-ERG_r primers (Tomlins, et al., Science 310:644-648 (2005)). RPL13A was used for normalization. For estrogen experiments, cDNA was synthesized using the Omniscript RT kit (Qiagen) and HMBS was used for normalization. Relative quantitation was carried out using the comparative Ct method.
# (§2) The prostate cancer cell lines NCI-H660 and VCaP were maintained according to ATCC instructions. The cells were hormone-deprived by culture for three days in their respective phenol red-free media (for NCI-H660 without E2 and hydrocortisone) supplemented with 5% CDT-FBS (Invitrogen). Cells were challenged with hormones or vehicle for 12, 24 or 48 hours.
# (§3) Reagents were used at a final concentration of 10^−8M.
# [3] = system: TMPRSS2-ERG fusion transcript; assay: TMPRSS2-ERG fusion transcript expression in ERβ-overexpressing VCaP cells
# Method: as §1, §2, §3
# VCaP cells were transiently transfected with ERβ containing plasmid using Lipofectamine2000 (Invitrogen) for 6 h. Transfection medium was removed after 6 h, cells were washed in PBS twice, and phenol red-free DMEM (Cellgro) supplemented with 5% CDT-FBS (Invitrogen) was added. Cells were challenged with hormones or vehicle 48 hours after transfection. NCI-H660 cells were transiently transfected with smart pool siRNA against ERβ (Dharmacon).
# [4] = system: TMPRSS2-ERG fusion transcript; assay: TMPRSS2-ERG fusion transcript expression in non-ERβ-overexpressing VCaP cells
# Method: as §1, §2, §3
# [5] = NCI-H660 cells, final concentration 10^−8M, 12, 24 or 48 hours
# [6] = ERβ-overexpressing VCaP cells (VCaP-ERβ, ERα negative), final concentration 10^−8M
SMILES,growth of NCI-H660 cells [1],"TMPRSS2-ERG expression [2, 5]",TMPRSS2-ERG expression [2],"TMPRSS2-ERG fusion transcript expression [3, 6]",further results
"N#CC(Cc1ccc(O)cc1)c1ccc(O)cc1 (stereo not drawn) [DPN, diarylpropionitrile]",suppressed growth,suppressed expression of the fusion; also recorded: significantly decreased TMPRSS2-ERG expression,–,–,TMPRSS2-ERG fusion transcript expression [3]: down-regulation of the TMPRSS2-ERG fusion transcript; TMPRSS2-ERG fusion transcript expression [4]: down-regulation was not seen
C[C@]12CC[C@@H]3c4ccc(O)cc4C[C@@H](CCCCCCCCC[S+]([O-])CCCC(F)(F)C(F)(F)F)[C@H]3[C@@H]1CC[C@@H]2O (stereo partly drawn) [fulvestrant],–,reduced the expression of the fusion transcript,–,–,–
Oc1ccc(/C=C/c2cc(O)cc(O)c2)cc1 [resveretrol],–,–,reduced the expression of the fusion transcript,–,–
"CCCc1c(-c2ccc(O)cc2)nn(-c2ccc(O)cc2)c1-c1ccc(O)cc1 [PPT, propylpyrazole triol]",–,–,increased TMPRSS2-ERG expression,–,–
O=C(c1ccc(OCCN2CCCCC2)cc1)c1c(-c2ccc(O)cc2)sc2cc(O)ccc12 [raloxifene],–,up-regulation of TMPRSS2-ERG,–,remarkable down-regulation of the fusion transcript,–
"C[C@]12CC[C@@H]3c4ccc(O)cc4CC[C@H]3[C@@H]1CC[C@@H]2O [E2, 17β-estradiol]",significantly inhibited,–,–,down-regulation of the TMPRSS2-ERG fusion transcript,"TMPRSS2-ERG fusion transcript expression ([4]; non-ERβ-overexpressing VCaP cells, final concentration 10^−8M): down-regulation was not seen"
